In patent EP4682146A1, “COMPOSITION INCLUDING NOVEL PYRIDOINDOLE DERIVATIVE COMPOUND AS ACTIVE INGREDIENT FOR PREVENTION OR TREATMENT OF NEURODEGENERATIVE DISEASES” (Neurotarge Co., Ltd., priority 2023, dated 2024):

Biological target: T1, Tau-Synaptogyrin3 interaction (Homo sapiens, UniProt O43761+P10636)
T1 construct: expressed in transfected cells
Assay: Cell-based split luciferase (NanoBit) protein complementary assay for Tau-Synaptogyrin3 interaction in stable cell line HEK293T-TK252-1E2
Conditions: HEK293T-TK252-1E2 cells, 48 hrs compound treatment, L/F value (luciferase activity/fluorescent intensity) compared to DMSO control
Method: Live cell luciferase assay: Live cell luciferase activity was measured using NanoGlo® Live Cell Assay System (Cat# N2012. Promega, WI, USA), according to manufacturer's instruction. All microplate-based measurement was performed with BioTek Synergy H1 (Agilent. CA, USA).
For producing HEK293T-TK252 stable cell line for screening, BglII-linearized pTK252 was transfected to HEK293T cells. After 24 hrs transfection, the transfected cells were cultured in the culture media containing 1 µg/ml puromycin (10 mM in DMSO, Cat# J61278/ Alfa Aesar. ThermoFisher Korea, Seoul, Korea) for 9 days. Regular media change was performed in every 3 days with fresh puromycin of indicating concentration during the whole selection period. The selected cells were trypsinized and diluted to 5 cells/ml and seeded to 4x 96 well cell culture plates (100 µl/well), and cultured with the cell culture media containing 1 µg/ml puromycin for 11 days. 18 wells that contained only GFP-positive cells were selected for expansion, and cultured with the cell culture media containing 0.1-0.2 µg/ml puromycin for 14 days. 10 clones were discarded during the expansion due to emerging of non-GFP cells, and 8 clones were validated. The selected clone (1E2) was cultured with the cell culture media containing 0.5 µg/ml puromycin for further experiments.
3 µmol of 1,728 compounds were purchased from Otava Chemicals MB (Vilniaus, Lithuania), dissolved into 300 µl DMSO (10 mM) and stored at -80°C. 4x10^4 HEK293T-TK252-1E2 cells were seeded with 100 µl of the cell culture media into 96 white well cell culture plates (Cat# 30196. SPL, Seoul, Korea), 48 hrs prior to compound treatment. For 10 µM compound treatment, 10 mM compound stock was diluted to 50 µM with the cell culture media, and 25 µl of the diluted compound was added to the designated wells of the 96 well plates. For dose-response experiments, the amount of compounds for dilution was adjusted to fit the volume indicated above. After 48 hrs compound treatment, the cells were washed once with OptiMEM and live cell luciferase activity, fluorescent intensity and fluorescence area scan was measured.
1,728 compounds were treated at 10 µM to HEK293T-TK252-1E2 cells and incubated for 48 hrs. […] Single wash step with culture media without FBS was included before measurement to discard dead cells and to remove FBS that affects luciferase assay. […] Fluorescent intensity was taken for normalization, which is expected to be proportion to the cell number at the measuring point. L/F value which is luciferase activity normalized with fluorescent intensity (L/F = Luciferase activity/ Fluorescent intensity) was calculated for all measurements and compared to L/F value of DMSO controls to calculated the size of inhibitory effect. […] Fluorescence area scan (FA) performed right after luciferase activity and fluorescent intensity measurement, to validate total remaining fluorescent cells in a well as a proxy to the cellular toxicity. FA value was in proportion to WST assay results (data not shown), and average CV of triplicates of all measurements was 0.04.
61 compounds were further tested for dose-response profile, based on inhibitory effect that was measured by L/F value (<60%) and FA-based cell viability (>90%) at 10 µM compared to DMSO control. 10 compounds were considered as hit compounds through three times of reproduction.

T1 sequence (P10636 1-441 isoform P10636-8): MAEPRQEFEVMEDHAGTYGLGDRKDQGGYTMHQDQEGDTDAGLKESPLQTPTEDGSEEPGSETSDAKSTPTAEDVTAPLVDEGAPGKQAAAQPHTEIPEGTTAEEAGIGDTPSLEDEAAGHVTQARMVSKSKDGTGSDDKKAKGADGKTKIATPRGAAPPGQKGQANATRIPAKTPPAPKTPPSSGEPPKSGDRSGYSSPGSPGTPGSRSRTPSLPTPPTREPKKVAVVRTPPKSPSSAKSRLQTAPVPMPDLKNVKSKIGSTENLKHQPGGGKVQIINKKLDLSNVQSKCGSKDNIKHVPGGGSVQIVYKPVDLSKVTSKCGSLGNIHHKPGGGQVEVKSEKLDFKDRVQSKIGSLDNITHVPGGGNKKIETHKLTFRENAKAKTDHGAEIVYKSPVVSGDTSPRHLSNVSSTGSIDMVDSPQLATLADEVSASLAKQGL
T1 sequence (O43761 whole entry): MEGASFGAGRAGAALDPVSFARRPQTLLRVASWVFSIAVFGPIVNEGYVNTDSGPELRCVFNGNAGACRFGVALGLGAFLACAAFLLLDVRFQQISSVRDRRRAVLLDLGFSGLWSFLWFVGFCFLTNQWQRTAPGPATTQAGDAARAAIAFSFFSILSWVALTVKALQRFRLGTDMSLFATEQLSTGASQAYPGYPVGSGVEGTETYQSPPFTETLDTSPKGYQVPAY

Cn1ccc2c(C(=O)N3CCc4[nH]c5ccc(-c6ccccc6)cc5c4C3)cccc21 [Formula 10, (1-methyl-1H-indol-4-yl)(8-phenyl-1,3,4,5-tetrahydro-2H-pyrido[4,3-b]indol-2-yl)methanone] and COc1ccc(C(=O)N2CCc3[nH]c4ccc(-c5ccccc5)cc4c3C2)cc1 [Formula 17, (4-methoxyphenyl)(8-phenyl-1,3,4,5-tetrahydro-2H-pyrido[4,3-b]indol-2-yl)methanone] fall in the same range of IC50: 3 to 12 µM for the first, 3 to 12 µM for the second.

First: Cc1ccc(C(=O)N2CCc3[nH]c4ccc(-c5ccc(C#N)cc5)cc4c3C2)cc1 [Formula 52]
Second: Cc1ccc(C(=O)N2CCc3[nH]c4ccc(-c5cccc(C#N)c5)cc4c3C2)cc1 [Formula 56, 3-(2-(4-Methylbenzoyl)-2,3,4,5-tetrahydro-1H-pyrido[4,3-b]indol-8-yl)benzonitrile]
The IC50 of the first is lower: under 3 µM for the first, 3 to 12 µM for the second.

N#Cc1ccc(-c2ccc3[nH]c4c(c3c2)CN(C(=O)c2ccccc2)CC4)cc1 [Formula 50] and O=C(c1ccccc1)N1CCc2[nH]c3ccc(-c4ccc(F)cc4)cc3c2C1 [Formula 64, (8-(4-fluorophenyl)-1,3,4,5-tetrahydro-2H-pyrido[4,3-b]indol-2-yl)(phenyl)methanone] cannot be ordered by IC50: under 3 µM for the first, under 3 µM for the second.

First: O=C(c1cccnc1)N1CCc2[nH]c3ccc(Nc4ccc(Cl)cc4)cc3c2C1 [Formula 32, (8-((4-chlorophenyl)amino)-1,3,4,5-tetrahydro-2H-pyrido[4,3-b]indol-2-yl)(pyridin-3-yl)methanone]
Second: O=C(c1ccccc1)N1CCc2[nH]c3ccc(Nc4ccc(Cl)cc4)cc3c2C1 [Formula 33, (8-((4-chlorophenyl)amino)-1,3,4,5-tetrahydro-2H-pyrido[4,3-b]indol-2-yl)(phenyl)methanone]
The IC50 of the first is lower: under 3 µM for the first, 3 to 12 µM for the second. The first is the more potent here.

First: O=C(c1nccs1)N1CCc2[nH]c3ccc(-c4ccccc4)cc3c2C1 [Formula 11, (8-phenyl-1,3,4,5-tetrahydro-2H-pyrido[4,3-b]indol-2-yl)(thiazol-2-yl)methanone]
Second: Cc1cnc(C(=O)N2CCc3[nH]c4ccc(-c5ccccc5)cc4c3C2)cn1 [Formula 6, (5-methylpyrazin-2-yl)(8-phenyl-1,3,4,5-tetrahydro-2H-pyrido[4,3-b]indol-2-yl)methanone]
The IC50 of the first is lower: 3 to 12 µM for the first, 12 to 25 µM for the second. The first is the more potent here.

Cc1ccccc1-c1ccc2[nH]c3c(c2c1)CN(C(=O)c1ccncc1)CC3 [Formula 21, Pyridin-4-yl(8-(o-tolyl)-1,3,4,5-tetrahydro-2H-pyrido[4,3-b]indol-2-yl)methanone] and Cc1cncc(C(=O)N2CCc3[nH]c4ccc(-c5ccccc5C)cc4c3C2)c1 [Formula 22, (5-methylpyridin-3-yl)(8-(o-tolyl)-1,3,4,5-tetrahydro-2H-pyrido[4,3-b]indol-2-yl)methanone] fall in the same range of IC50: 3 to 12 µM for the first, 3 to 12 µM for the second.

First: Cc1ccc(-c2ccc3[nH]c4c(c3c2)CN(C(=O)c2ccc(N(C)C)cc2)CC4)cc1 [Formula 69, (4-(Dimethylamino)phenyl)(8-(p-tolyl)-1,3,4,5-tetrahydro-2H-pyrido[4,3-b]indol-2-yl)methanone]
Second: Cc1ccc(-c2ccc3[nH]c4c(c3c2)CN(C(=O)c2cccc(C)c2)CC4)cc1 [Formula 38, m-Tolyl(8-(p-Tolyl)-1,3,4,5-tetrahydro-2H-pyrido[4,3-b]indol-2-yl)methanone]
The IC50 of the first is lower: 3 to 12 µM for the first, 12 to 25 µM for the second.

First: Cc1ccc(-c2ccc3c(c2)c2c(n3C)CCN(C(=O)c3cccnc3)C2)cc1 [Formula 44, (5-methyl-8-(p-tolyl)-1,3,4,5-tetrahydro-2H-pyrido[4,3-b]indol-2-yl)(pyridin-3-yl)methanone]
Second: CCn1c2c(c3cc(-c4ccc(C)cc4)ccc31)CN(C(=O)c1cccnc1)CC2 [Formula 46, (5-ethyl-8-(p-tolyl)-1,3,4,5-tetrahydro-2H-pyrido[4,3-b]indol-2-yl)(pyridin-3-yl)methanone]
The IC50 of the first is lower: under 3 µM for the first, 3 to 12 µM for the second.

First: Cc1ccc(-c2ccc3[nH]c4c(c3c2)CN(C(=S)Nc2ccccc2)CC4)cc1 [Formula 74, N-phenyl-8-(p-tolyl)-1,3,4,5-tetrahydro-2H-pyrido[4,3-b]indole-2-carbothioamide]
Second: Cc1ccc(-c2ccc3[nH]c4c(c3c2)CN(C(=S)Nc2ccc(C#N)cc2)CC4)cc1 [Formula 77, N-(4-cyanophenyl)-8-(p-tolyl)-1,3,4,5-tetrahydro-2H-pyrido[4,3-b]indole-2-carbothioamide]
The IC50 of the first is lower: 3 to 12 µM for the first, 12 to 25 µM for the second.

First: Cc1ccc(C(=O)N2CCc3[nH]c4ccc(-c5ccc(C#N)cc5)cc4c3C2)cn1 [Formula 54]
Second: Cc1ccc(-c2ccc3[nH]c4c(c3c2)CN(C(=O)c2ccc(C)nc2)CC4)cc1 [Formula 40, (6-methylpyridin-3-yl)(8-(p-tolyl)-1,3,4,5-tetrahydro-2H-pyrido[4,3-b]indol-2-yl)methanone]
The IC50 of the first is higher: 3 to 12 µM for the first, under 3 µM for the second. The second is the more potent here.

Cc1cncc(C(=O)N2CCc3[nH]c4ccc(-c5ccccc5)cc4c3C2)c1 [Formula 4, (5-methylpyridin-3-yl)(8-phenyl-1,3,4,5-tetrahydro-2H-pyrido[4,3-b]indol-2-yl)methanone] and Cc1ccc(C(=O)N2CCc3[nH]c4ccc(-c5ccccc5)cc4c3C2)cn1 [Formula 5, (6-methylpyridin-3-yl)(8-phenyl-1,3,4,5-tetrahydro-2H-pyrido[4,3-b]indol-2-yl)methanone] fall in the same range of IC50: 3 to 12 µM for the first, 3 to 12 µM for the second.

CCc1ccc(C(=O)N2CCc3[nH]c4ccc(-c5ccccc5)cc4c3C2)cc1 [Formula 16, (4-ethylphenyl)(8-phenyl-1,3,4,5-tetrahydro-2H-pyrido[4,3-b]indol-2-yl)methanone] and N#Cc1ccccc1-c1ccc2[nH]c3c(c2c1)CN(C(=O)c1ccccc1)CC3 [Formula 61, 2-(2-benzoyl-2,3,4,5-tetrahydro-1H-pyrido[4,3-b]indol-8-yl)benzonitrile] fall in the same range of IC50: 3 to 12 µM for the first, 3 to 12 µM for the second.

First: Cc1ccc(C(=O)N2CCc3[nH]c4ccc(-c5ccc(C)nc5)cc4c3C2)cn1 [Formula 49, (6-methylpyridin-3-yl)(8-(6-methylpyridin-3-yl)-1,3,4,5-tetrahydro-2H-pyrido[4,3-b]indol-2-yl)methanone]
Second: Cc1cccc(-c2ccc3[nH]c4c(c3c2)CN(C(=O)c2cccnc2)CC4)c1 [Formula 27, Pyridin-3-yl(8-(m-tolyl)-1,3,4,5-tetrahydro-2H-pyrido[4,3-b]indol-2-yl)methanone]
The IC50 of the first is higher: 12 to 25 µM for the first, under 3 µM for the second.

First: N#Cc1ccc(-c2ccc3[nH]c4c(c3c2)CN(C(=O)c2cccc(C#N)c2)CC4)cc1 [Formula 55]
Second: Cc1cccc(C(=O)N2CCc3[nH]c4ccc(-c5ccc(C#N)cc5)cc4c3C2)c1 [Formula 53]
The IC50 of the first is higher: 12 to 25 µM for the first, 3 to 12 µM for the second.

Cc1ccc(-c2ccc3c(c2)c2c(n3C)CCN(C(=O)c3ccccc3)C2)cc1 [Formula 43, (5-methyl-8-(p-tolyl)-1,3,4,5-tetrahydro-2H-pyrido[4,3-b]indol-2-yl)(phenyl)methanone] and CCn1c2c(c3cc(-c4ccc(C)cc4)ccc31)CN(C(=O)c1ccccc1)CC2 [Formula 45, (5-ethyl-8-(p-tolyl)-1,3,4,5-tetrahydro-2H-pyrido[4,3-b]indol-2-yl)(phenyl)methanone] fall in the same range of IC50: 3 to 12 µM for the first, 3 to 12 µM for the second.

In the case of O=C(c1ccccc1)N1CCc2[nH]c3ccc(-c4ccc(C5CCCCC5)cc4)cc3c2C1 [Formula 66, (8-(4-Cyclohexylphenyl)-1,3,4,5-tetrahydro-2H-pyrido[4,3-b]indol-2-yl)(phenyl)methanone], the IC50 is reported as 12 to 25 µM.
